Source: patent publication US8221762B2, “Naturally processed measles virus peptides from class II HLA molecules” (priority 2004, dated 2012)

Tests used:
[1] = system: PBMC of subjects previously immunized with MMR-II vaccine; test: IFN-γ supernatant cytokine response (ELISA) to measles virus and synthetic measles peptides; assay type: cell-based, human; settings: for Median secretion value IFN-γ: stimulated minus control cells
Description: (§1) To evaluate the immunogenicity of measles-derived peptides, 281 of these subjects (age 12 to 18 years) were studied.
(§2) Cryopreserved PBMC were used to measure cytokine responses to measles-derived peptides. We thawed cryopreserved PBMC at a concentration of 1×10^7 cells/mL using standard protocol. The vials were rapidly thawed in a 37° C. water bath and then washed twice with 10× volume of complete RPMI 1640 media supplemented with 10% FCS at 700 rpm for 5 minutes. The final cell pellet was resuspended in complete RPMI media containing penicillin-streptomycin (100 U/mL) and supplemented with 5% normal human AB sera (Ervin Sci., Santa Ana, Calif.). For IFN-γ determination, thawed PBMC were cultured at a concentration of 2×10^5 in RPMI containing 5% normal human AB sera with or without measles peptides (10 μg/well) and MV (positive control) at a moi of 0.5 for 6 days. For IL-4 determination in cell culture supernatants, we cultured thawed PBMC at a concentration of 4×10^5 in RPMI media, supplemented with 5% normal human AB sera. Cells were cultured in the presence of 2 μg/mL of IL-4 receptor antibody (R&D Systems, Minneapolis, Minn.) (Ekerfelt, et al., J. Immunol. Methods 260:55-67, 2002) with or without synthetic measles-derived peptides (10 μg/well) and MV (positive control) at a moi of 0.1 for 6 days. Cell culture supernatants were collected in a volume of 150 μl/well for both IFN-γ and IL-4 and were frozen at […] until assayed. The culture supernatants were assayed using a standard ELISA protocol (OptiEtA Human IFN-γ and IL-4, PharMingen, San Diego, Calif.) at a dilution of 1:1 in PBS containing 10% FCS. ELISA plates (Immulon-4, DYNEX Technologies Inc, Chantilly, Va.) were coated with capture IFN-γ or IL-4 mAb and incubated overnight at 4° C. The antibody-coated plates were incubated with diluted supernatant samples for 2 hours at room temperature followed by incubation with biotinylated mouse anti-human IFN-γor IL-4 conjugated to avidin-horseradish peroxidase for 1 hour at room temperature. The absorbance of the product was read using a microplate reader (Molecular Devices, Sunnyvale, Calif.) at 450 nm. The IFN-γ and IL-4 concentration of test samples was calculated by reference to the standard curve. Unstimulated and MV-stimulated secretion measurements for IFN-γ were performed in triplicate, while all other secretion measurements for both IFN-γ and IL-4 were performed in duplicate. Individual-specific values were then summarized by taking means of the duplicate or triplicate values. Mean background levels of IFN-γ and IL-4 cytokine production in cultures not stimulated with measles peptides or MV was subtracted from the mean antigen-induced responses to produce “corrected” secretion values. Negative corrected values indicate that the unstimulated secretion levels were, on average, higher than the stimulated secretion levels.
(§3) Two criteria were established to define positive responses for secreted IFN-γ and IL-4 cytokines using ELISA.

[2] = system: PBMC of subjects previously immunized with MMR-II vaccine; test: T cell proliferation assay ([3H]-thymidine, 4 days, SI>2 positive), Example 3; settings: 131 subjects (MV-P2 130, MV-F 43)
Description: Briefly, study participants were enrolled as part of a larger stratified random sample study to assess associations between HLA genes and immune response to measles-mumps-rubella-II (MMR-II) vaccine in healthy, school-age children and young adults (ages 12 to 18 years). To evaluate the cellular responses to measles peptides, 131 subjects were used. In addition, a random subset of 43 individuals was tested for reactivity to a control measles fusion (F) peptide. All enrolled subjects had been previously immunized with two doses of MMR-II vaccine (Merck Research, West Point, Pa.) containing the attenuated Edmonston strain of MV. All but four of these participants were Caucasian and all subjects resided in a geographic area where no wild-type MV had circulated in the community during the subjects' lifetimes.
In brief, peripheral blood mononuclear cells (PBMC) were separated from heparinized blood by Ficoll-Hypaque (Sigma, St. Louis, Mo.) density gradient centrifugation and washed in RPMI 1640 medium (Celox Laboratories, Inc., St. Paul, Minn.) supplemented with 2 mM L-glutamine, 100 μg/ml streptomycin, 100 U/ml penicillin and 8% fetal calf serum (Life Technologies, Gaithersburg, Md.). Measles virus, MV-P1, MV-P2, and MV-F specific T cell responses were measures by proliferation of PBMC (2×10^5) incubated in RPMI-1640 medium, supplemented with 5% autologous sera, with live attenuated MV (50 pfu/ml, positive control) or synthetic peptides (20 μg/ml) compared to unstimulated cell control wells. Phytohemagglutinin (PHA, 5 μg/ml) was used to assess cell vitality. Only assays in which PBMC responded to PHA were accepted. T lymphocyte proliferation was measured after 4 days by [^3H]-tritiated thymidine uptake. Cells were then harvested onto glass fiber filters, using a 96-well harvesting system (Skatron Instruments, Norway). The amount of incorporated radioactivity was determined by a liquid scintillation counter (Packard Instrument Company, Boston, Mass.). We used six replicates of counts per minute (cpm) values for unstimulated cells, and three replicates each for T cells stimulated with peptides and live measles vaccine. For each subject, median cpm were calculated for unstimulated cells, as well as for cells stimulated with MV-P1, MV-P2, MV-F and measles. Results were then expressed as antigen-specific stimulation indices (SI), defined as the ratio of the median cpm of antigen-stimulated wells to the median cpm of unstimulated control wells. […] SI>2 was arbitrarily selected prior to the study as an indication of the presence of reactive peptide specific memory T cells, and SI<2 as an indicator of the lack of memory T lymphocytes to measles-derived peptides (Pauksen, et al., Bone Marrow Transplant 20:317-323, 1997).
Three outcomes were of primary interest: T cell proliferation (as measured by stimulation indices) induced separately by live MV, the MV-P1 peptide, and the MV-P2 peptide variant. Data were descriptively summarized using frequencies and percentages for all categorical variables, and medians and ranges for all continuous variables.

[3] = system: PBMC from subjects previously immunized with MMR-II vaccine; test: T cell proliferation assay ([3H]-thymidine, 3 days, SI cut point 3.0), Example 1; assay type: cell-based, human; settings: 95 subjects
Description: Study participants included ninety-five healthy residents of Olmsted County, Minn., aged 11 to 18 years. […] Mononuclear leukocytes were isolated by Ficoll-Hypaque (Amersham) density gradient centrifugation.
For descriptive analyses, we used medians and ranges for continuous variables and frequencies for categorical variables. We compared cpm for MV-stimulated, MV-P1-stimulated and MV-P2-stimulated cells with unstimulated cells using Wilcoxon signed rank tests. Associations between the continuously distributed stimulation indices for MV-P1, MV-P2 peptides, and MV were determined using Spearman rank correlation coefficients. Stimulation indices were subsequently dichotomized into positive or negative using a cut point of 3.0. We then compared MV positivity with MV-P1 and MV-P2 positivity using estimates of sensitivity.

[4] = system: PBMC of subjects previously immunized with MMR-II vaccine; test: IL-4 supernatant cytokine response (ELISA) to measles virus and synthetic measles peptides; assay type: cell-based, human; settings: for Median secretion value IL-4: stimulated minus control cells
Description: as §1, §2, §3

[5] = 281 subjects, stimulated cells minus unstimulated cells
[6] = peptides 20 μg/ml, MV 50 pfu/ml, 4 days
[7] = peptides 20 μg/ml, MV 50 PFU/well

CC[C@H](C)[C@H](NC(=O)[C@H](CCC(=O)O)NC(=O)CNC(=O)CNC(=O)[C@H](CCC(=O)O)NC(=O)[C@H](C)NC(=O)[C@@H](NC(=O)[C@H](CCC(=O)O)NC(=O)[C@@H](NC(=O)[C@H](CC(=O)O)NC(=O)[C@H](CO)NC(=O)[C@H](C)N)C(C)C)[C@@H](C)O)C(=O)N[C@@H](Cc1c[nH]cn1)C(=O)N[C@@H](CCC(=O)O)C(=O)N[C@@H](CC(C)C)C(=O)N[C@@H](CC(C)C)C(=O)N[C@@H](CCCNC(=N)N)C(=O)N[C@@H](CC(C)C)C(=O)N[C@@H](CCC(N)=O)C(=O)O [MV-P1]
IFN-γ % Response (>20 pg/mL) ([1]; 281 subjects, peptides 10 μg/well, MV moi 0.5, 6 days): 55.9%
IFN-γ Median level [1, 5]: 28.0 pg/mL
Median secretion value IFN-γ ([1]; All other HLA-DRB1 alleles): 26.7 pg/mL
Median secretion value IFN-γ ([1]; HLA-DRB1 allele *0101): 51.2 pg/mL
Median secretion value IFN-γ ([1]; HLA-DRB1 allele *0102): 17.6 pg/mL
Median secretion value IFN-γ ([1]; HLA-DRB1 allele *0103): 116.2 pg/mL
Median secretion value IFN-γ ([1]; HLA-DRB1 allele *0301): 40.8 pg/mL
Median secretion value IFN-γ ([1]; HLA-DRB1 allele *0401): 33.5 pg/mL
Median secretion value IFN-γ ([1]; HLA-DRB1 allele *0402): 0.1 pg/mL
Median secretion value IFN-γ ([1]; HLA-DRB1 allele *0404): 52.2 pg/mL
Median secretion value IFN-γ ([1]; HLA-DRB1 allele *0407): 8.6 pg/mL
Median secretion value IFN-γ ([1]; HLA-DRB1 allele *0701): 18.6 pg/mL
Median secretion value IFN-γ ([1]; HLA-DRB1 allele *0801): 27.2 pg/mL
Median secretion value IFN-γ ([1]; HLA-DRB1 allele *0901): 19.9 pg/mL
Median secretion value IFN-γ ([1]; HLA-DRB1 allele *1001): 46.9 pg/mL
Median secretion value IFN-γ ([1]; HLA-DRB1 allele *1101): 48.5 pg/mL
Median secretion value IFN-γ ([1]; HLA-DRB1 allele *1103): 65.3 pg/mL
Median secretion value IFN-γ ([1]; HLA-DRB1 allele *1104): 15.4 pg/mL
Median secretion value IFN-γ ([1]; HLA-DRB1 allele *1201): 14.6 pg/mL
Median secretion value IFN-γ ([1]; HLA-DRB1 allele *1301): 27.4 pg/mL
Median secretion value IFN-γ ([1]; HLA-DRB1 allele *1302): 14.2 pg/mL
Median secretion value IFN-γ ([1]; HLA-DRB1 allele *1303): 63.9 pg/mL
Median secretion value IFN-γ ([1]; HLA-DRB1 allele *1401): 22.5 pg/mL
Median secretion value IFN-γ ([1]; HLA-DRB1 allele *1501): 32.8 pg/mL
Median secretion value IFN-γ ([1]; HLA-DRB1 allele *03011): 18.7 pg/mL
Median secretion value IFN-γ ([1]; Overall (281)): 28.0 pg/mL
MV IFN-γ responders who also produced IFN-γ to the peptide ([1]; among the 185 subjects who responded to MV): 59.5%
subjects with stimulation index greater than 2 (positive lymphoproliferative response) [2]: 41%
stimulation index, median [2, 6]: 1.7
stimulation index, range [2, 6]: 0.5-20.3
subjects with stimulation index greater than 3.0 (recognized) [3]: 17%
stimulation index, median [3, 7]: 1.4
stimulation index, range [3, 7]: 0.5-20.3
median cpm value, lymphoproliferative assay ([3]; peptides 20 μg/ml, live attenuated MV 50 PFU/well, 3 days): 472 cpm
IL-4 % Response (>10 pg/mL) ([4]; 281 subjects, peptides 10 μg/well, MV moi 0.1, 6 days): 19.2%
IL-4 Median level [4, 5]: -0.4 pg/mL
Median secretion value IL-4 ([4]; All other HLA-DRB1 alleles): -1.3 pg/mL
Median secretion value IL-4 ([4]; HLA-DRB1 allele *0101): 1.1 pg/mL
Median secretion value IL-4 ([4]; HLA-DRB1 allele *0102): 5.6 pg/mL
Median secretion value IL-4 ([4]; HLA-DRB1 allele *0103): -1.5 pg/mL
Median secretion value IL-4 ([4]; HLA-DRB1 allele *0301): 3.5 pg/mL
Median secretion value IL-4 ([4]; HLA-DRB1 allele *0401): 0.9 pg/mL
Median secretion value IL-4 ([4]; HLA-DRB1 allele *0402): 3.8 pg/mL
Median secretion value IL-4 ([4]; HLA-DRB1 allele *0404): 0.3 pg/mL
Median secretion value IL-4 ([4]; HLA-DRB1 allele *0407): -2.1 pg/mL
Median secretion value IL-4 ([4]; HLA-DRB1 allele *0701): -0.6 pg/mL
Median secretion value IL-4 ([4]; HLA-DRB1 allele *0801): -1.4 pg/mL
Median secretion value IL-4 ([4]; HLA-DRB1 allele *0901): -0.9 pg/mL
Median secretion value IL-4 ([4]; HLA-DRB1 allele *1001): 0.9 pg/mL
Median secretion value IL-4 ([4]; HLA-DRB1 allele *1101): -3.7 pg/mL
Median secretion value IL-4 ([4]; HLA-DRB1 allele *1103): -3.5 pg/mL
Median secretion value IL-4 ([4]; HLA-DRB1 allele *1104): -1.3 pg/mL
Median secretion value IL-4 ([4]; HLA-DRB1 allele *1201): -0.4 pg/mL
Median secretion value IL-4 ([4]; HLA-DRB1 allele *1301): -3.0 pg/mL
Median secretion value IL-4 ([4]; HLA-DRB1 allele *1302): 1.2 pg/mL
Median secretion value IL-4 ([4]; HLA-DRB1 allele *1303): -4.2 pg/mL
Median secretion value IL-4 ([4]; HLA-DRB1 allele *1401): -0.8 pg/mL
Median secretion value IL-4 ([4]; HLA-DRB1 allele *1501): -0.7 pg/mL
Median secretion value IL-4 ([4]; HLA-DRB1 allele *03011): 0.2 pg/mL
Median secretion value IL-4 ([4]; Overall (281)): -0.4 pg/mL
MV IL-4 responders who also responded to the peptide ([4]; among the 143 subjects with IL-4 production from MV-stimulated PBMC): 23.1%
